Data: patent publication US20220265671A1, “METHOD FOR TREATING STROKE BY USING TRICYCLIC DERIVATIVE” (Jeil Pharmaceutical Co., Ltd., priority 2019, published 2022)
Several values for one entry are separate records, joined by “and”; a condition that tells them apart may be missing. Equal entries are not always repeated.

Key:
[1] = system: tMCAO animal model; conditions: Molecular Neurobiology 55(9859), January 2018; cited from earlier work
[2] = Population pharmacokinetics model (NONMEM) built on single dose phase 1 data; set-up: species or system human
Description: A pharmacokinetics model for administration of a test drug was established for integration with a quantitative pharmacokinetics model for simulating the efficacy and safety of test drugs, as well as simulating the pharmacokinetics of future doses and dosage regimens. The simulation was performed by constructing a pharmacokinetics model based on pharmacokinetics information and demographic information of a total of 30 test subjects who were administered 35 mg, 75 mg, 150 mg, 300 mg, and 600 mg among the test subjects who participated in the single dose clinical test of test drug phase 1. The analysis was performed by a non-linear mixed effect modeling method using NONMEM® (version 7.2; ICON Development Solutions, Ellicott City, Md., USA).
The population pharmacokinetics model was constructed in the order of structural model construction, covariate analysis, and model selection. As a first step, a basic structural model was constructed, and as a step of establishing a model capable of best explaining the change in drug concentration over time, the most pharmacologically and statistically suitable model was selected by performing a search in the order of a 1-compartment model, a 2-compartment model, and a 3-compartment model. As the next step, covariate analysis was performed, and the effects of age, height, body weight, serum creatine, BUN, albumin, AST, and ALT concentrations which are part of the demographic information on pharmacokinetics were quantitatively evaluated. Finally, model selection (internal validation) was performed, a simulation of the established model was performed, and this was evaluated by a visual predictive check (VPC), which is a schematic evaluation method.
The pattern of time-blood concentration changes of the test drug is best explained by a 3-compartment model with 1st order elimination. No significant covariate was found in the covariate analysis utilizing age, height, body weight, serum creatine, BUN, albumin, AST, and ALT concentrations.

[3] = system: patients with acute ischemic stroke; assay: Phase II clinical test: change ratio of cerebral infarction lesion (MRI, day 4 vs baseline); assay type: in vivo, human
Description: (§1) A multi-organ, randomly allocated, double-blind, placebo-controlled, and initial phase II clinical test was conducted on patients with acute ischemic stroke to explore and evaluate the efficacy and safety of the study drug, respectively. This clinical test includes a total of three cohorts, and test subject registration starts from Cohort 1, and when the safety is secured, Cohort 2 is sequentially registered. The registration of Cohort 2 proceeds when the safety is secured after evaluation by the Data Safety Monitoring Board (DSMB) at the time point when all the test subjects of Cohort 1 completed Visit 5 (Day 29). Cohorts 1 and 2 are for confirming the safety and efficacy of the test drug, and based on this, the dose and dosage regimen, and the like of Cohort 3 are determined.
(§2) This clinical test is conducted on patients with modified thrombolysis in cerebral infarction (mTICI) 2b or 3 grade reperfusion in angiography after endovascular recanalization therapy (ERT) among patients with severe ischemic stroke in moderate cases confirmed to have undergone acute cerebral artery occlusion of the anterior circulation system. Intravenous tissue plasminogen activator (IV tPA) intravenous administration is permitted when the stroke is indicated before ERT. Furthermore, when angiography is performed for ERT after intravenous tPA administration, patients who have already undergone mTICI 2b-3 reperfusion by a venous tPA effect alone before ERT also become a subject of the clinical test.
(§3) The following Cohorts 1 to 3 are administered using an infusion pump after mixing a test drug or control drug with an infusion solution.
(§4) Cohort 1. Low-Dose Administration Group • Test drug group: administration of the test drug is started within 30 minutes after reperfusion is confirmed within 6 hours after the onset of the symptom. Immediately after intravenous administration (bolus) of 150 mg of the test drug for 15 minutes, 750 mg of the test drug is intravenously IV infused for 23 hours and 45 minutes (f2 hours). Administration of the test drug should be started within 6.5 hours after the onset of the symptom. • Control drug group: a placebo is administered in the same manner as in the test drug group.
Diffusion weighted imaging (DWI) and gradient-recalled echo (GRE) or susceptibility weighted imaging (SWI), and magnetic resonance imaging (MRI) examination are performed within 90 minutes after reperfusion while administering a medicine for a clinical test, and this is utilized as a baseline result. A change ratio of cerebral infarction lesion at a time point of day 4 compared to the baseline was measured.
For comparison between a test group and the placebo, a two sample t-test is used after log conversion of an evaluation variable (infarct growth ratio). Additionally, a comparison between the test group and the placebo is made using a Wilcoxon rank sum test for a source data log which is not log-converted.
When factors that may affect prognosis should be corrected, analysis of covariance (ANCOVA) is used after log conversion of the evaluation variables (infarct growth ratio).
In patients who were administered a control drug or a test drug, the change ratio of cerebral infarction lesions among patients with similar baselines of cerebral infarction lesions was confirmed (Table 3).

[4] = system: patients with acute ischemic stroke; assay: Phase II clinical test: Korean version of modified Rankin Scale (K-mRS) at day 90; assay type: in vivo, human
Description: as §1, §2, §3, §4
as §4, with “2. High-Dose” for “1. Low-Dose”, “300” for “150”, “30” for “15”, “1500” for “750”, “30” for “45”, “(±2” for “(f2”
The most widely used method for evaluating disability or dependence in daily life for people who have suffered from stroke or other neurological disorders is the Korean version of a modified Rankin Scale (K-mRS). The K-mRS is a global functional outcome scale which evaluates disability due to stroke and is the most universally used scale in stroke clinical tests. The K-mRS distribution shift analysis is a method of comparing the overall prognosis of the test group and the control group, and is the most recommended analysis method in clinical tests for acute stroke treatment methods including neuroprotective agents. The K-mRS is a scale of evaluating the patient's global functionality according to the independence of daily life and the degree to which the patient needs others' help, and is divided into 0 to 6 phases (0: normal, 5: severe disability, and 6: death). At the time points of days 29 and 90, a proportion of the K-mRS score evaluated by the evaluator is presented, and the pre-mRS evaluated at the time of screening is used as basic disease information. […]

[5] = system: healthy male volunteers; assay: Phase 1 clinical test, single dose escalation: adverse reactions; assay type: in vivo, human
Description: (§5) In order to evaluate the safety at the time of a single dose of a test drug, a phased clinical test was conducted as determined by the Data Safety Monitoring Board (DSMB) on 40 subjects (8 subjects per cohort: 6 subjects in test group and 2 subjects in placebo group) in 5 dose groups (35 mg, 75 mg, 150 mg, 300 mg, 600 mg) selected from healthy male volunteers in Korea.
A test drug or placebo was mixed with an infusion solution by intravenous injection therapy, and then administered using an infusion pump for 30 minutes (±5 minutes).
Of the 40 test subjects who were administered the clinical test drug, a total of 6 test subjects developed 7 adverse reactions. There were no reported adverse reactions in the placebo-administered group. Of the 7 adverse reactions, 1 case of “dizziness” was a moderate symptom in the test subjects who were administered 600 mg, and all other adverse reactions corresponded to a mild symptom. The subjects were spontaneously recovered from all the adverse reactions without any sequelae. […] Accordingly, it was determined that the drug tolerability of a single dose of the test drug was good in the test dose range.

[6] = system: healthy male volunteers; assay: Phase 1 clinical test, multi dose escalation: adverse reactions; assay type: in vivo, human
Description: as §5, with “a repeated” for “a single”, “on 24” for “on 40”, “in 3” for “in 5”, “groups (repeated administration of” for “groups (35 mg, 75 mg,”, “mg, and 450 mg seven times at intervals of 12 hours)” for “mg, 600 mg)”
A test drug or placebo was mixed with an infusion solution by intravenous injection therapy, and then administered using an infusion pump for 60 minutes (±10 minutes), and the same was repeatedly administered seven times at intervals of 12 hours.
Of the 24 test subjects who were administered the clinical test drug, a total of 7 test subjects developed 12 adverse reactions, and among them, 10 cases were confirmed to be adverse drug reactions. One case (one person) of an adverse reaction occurred in the placebo-administered group. […] Accordingly, it was determined that the tolerability of about 150 to 450 mg of the test drug during the repeated administration at intervals of 12 hours was good.

[7] = 3-compartment model, structural model
[8] = interindividual variability, predicted value
[9] = Cohort 1, day 4 compared to baseline, individual patients 2, 4, 6, 8, dihydrochloride
[10] = Cohort 1 (150 mg bolus + 750 mg infusion), n = 9
[11] = Cohort 2 (300 mg bolus + 1500 mg infusion), n = 6
[12] = repeated dose 150-450 mg, seven times at 12 h intervals

## CCOc1cc(CN2CCOCC2)cc2[nH]c(=O)c3c(c12)NCCC3 [10-ethoxy-8-(morpholinomethyl)-1,2,3,4-tetrahydrobenzo[h][1,6]naphthyridin-5(6H)-one]
[1]
  reducing cerebral infarction volume: effective in reducing cerebral infarction volume

## CCOc1cc(CN2CCOCC2)cc2[nH]c(=O)c3c(c12)NCCC3.Cl.Cl [Test drug, 10-ethoxy-8-(morpholinomethyl)-1,2,3,4-tetrahydrobenzo[h][1,6]naphthyridin-5(6H)-one dihydrochloride]
[2]; [7]
  1st Clearance of peripheral compartment (Q1), predicted value: 162 L/h
  1st Volume of peripheral compartment (V2), predicted value: 58.5 L
  2nd Clearance of peripheral compartment (Q2), predicted value: 2.66 L/h
  2nd Volume of peripheral compartment (V3), predicted value: 8.81 L
  Volume of central compartment (V1), predicted value: 15.2 L
[2]; 3-compartment model, structural model, 30 subjects, 35-600 mg IV
  Clearance of central compartment (CL), predicted value: 32.0 L/h
[2]; [8]
  Interindividual model CL: 43.8%
  Interindividual model Q1: 41.7%
  Interindividual model Q2: 28.1%
  Interindividual model V1: 52.4%
  Interindividual model V2: 20.2%
  Interindividual model V3: 64.1%
[3]; Cohort 1 (150 mg bolus + 750 mg infusion), individual patients 2, 4, 6, 8, MRI within 90 minutes after reperfusion, dihydrochloride
  Cerebral infarction lesion, Baseline: 1.59 cc and 10.1 cc and 32 cc and 126.66 cc
[3]; Cohort 1 (150 mg bolus + 750 mg infusion), individual patients 2, 4, 6, 8, dihydrochloride
  Cerebral infarction lesion, Time point of day 4: 2.67 cc and 10.94 cc and 45.33 cc and 127.61 cc
[3]; [9]
  Change ratio of cerebral infarction lesion: 1.68 and 1.08 and 1.42 and 1.01
  Rate of increase in cerebral infarction lesion: 67.9% and 8.3% and 41.7% and 0.8%
[3]; patients with similar baselines, Table 3
  rate of increase in cerebral infarction lesions compared to control drug group: significantly low rate of increase in cerebral infarction lesions
[4]; 900 mg of the test drug, day 90
  results of the K-mRS compared to control drug group: far superior
[4]; [10]
  K-mRS classification at the time point of day 90: K-mRS 0~2: 7(77.78) n(%)
  K-mRS classification at the time point of day 90: K-mRS 3~4: 2(22.22) n(%)
  K-mRS classification at the time point of day 90: K-mRS 5~6: 0 n(%)
[4]; Cohort 1 (900 mg), N = 9
  K-mRS (continuous variable) at the time point of day 90, 1st Quartile: 0.00
  K-mRS (continuous variable) at the time point of day 90, 3rd Quartile: 2.00
  K-mRS (continuous variable) at the time point of day 90, Max: 4.00
  K-mRS (continuous variable) at the time point of day 90, Mean(SD): 1.44(1.42)
  K-mRS (continuous variable) at the time point of day 90, Median: 1.00
  K-mRS (continuous variable) at the time point of day 90, Min: 0.00
[4]; Cohort 1, N = 9
  K-mRS classification at the time point of day 90: K-mRS 0: 3(33.33) n(%)
  K-mRS classification at the time point of day 90: K-mRS 1: 2(22.22) n(%)
  K-mRS classification at the time point of day 90: K-mRS 2: 2(22.22) n(%)
  K-mRS classification at the time point of day 90: K-mRS 3: 1(11.11) n(%)
  K-mRS classification at the time point of day 90: K-mRS 4: 1(11.11) n(%)
  K-mRS classification at the time point of day 90: K-mRS 5: 0 n(%)
  K-mRS classification at the time point of day 90: K-mRS 6: 0 n(%)
[4]; [11]
  K-mRS classification at the time point of day 90: K-mRS 0~2: 1(20.00) n(%)
  K-mRS classification at the time point of day 90: K-mRS 3~4: 3(60.00) n(%)
  K-mRS classification at the time point of day 90: K-mRS 5~6: 1(20.00) n(%)
[5]; single IV dose 35-600 mg over 30 minutes, 40 test subjects
  number of adverse reactions: 7
[5]; single IV dose 35-600 mg over 30 minutes, of the 40 test subjects, no adverse reactions in placebo group
  test subjects who developed adverse reactions: 6
[5]; single dose 600 mg, all other adverse reactions mild
  moderate adverse reactions (dizziness), cases: 1
[5]; single dose 35-600 mg, entire clinical test
  significant adverse reactions: No significant adverse reactions occurred
[5]; test dose range 35-600 mg IV
  drug tolerability of a single dose: good
[6]; 150, 300, 450 mg IV over 60 minutes, seven times at intervals of 12 hours, of the 24 test subjects, includes one person in placebo group
  test subjects who developed adverse reactions: 7
[6]; about 150 to 450 mg at intervals of 12 hours
  tolerability during repeated administration: good
[6]; repeated dose 150-450 mg, entire clinical test
  significant adverse reactions: no significant adverse reactions occurred
[6]; [12]
  adverse reactions confirmed to be adverse drug reactions, cases: 10
  severity of adverse reactions: mild
[6]; repeated dose 150-450 mg, seven times at 12 h intervals, 24 test subjects, one case in placebo group
  number of adverse reactions: 12
